Data reported in patent US8741844B2, “Use of mutated antithrombins for treating or preventing coagulation disorders” (Universite Paris-Sud XI, priority 2007, dated 2014).
Read-outs that look alike come from different tables or passages of the source.

Tests used:
[1] = Fondaparinux overdose and pharmacokinetics in mice; type: in vivo; details: mouse
Experimental: 1—Determination of the Doses of Fondaparinux Inducing an Overdose in Mice Published data concerning fondaparinux pharmacokinetics in rats (Herbert J 4197), or experimental determination of fondaparinux pharmacokinetics in mice are used to develop the model.
To induce an overdose, a 3 fold doses (300 nmol/kg, or 0.52 mg/kg) is tested. At this dose, the fondaparinux plasma concentration is about 3.5 to 4 nmol/ml (or 6 to 7 mg/L). An anti-Xa activity is determined to ensure that an overdose is obtained.
Anti FXa activity measurements is performed as previously described using a Stachrom Heparin® kit on a STA (Stago, France) or a Rotachrom Heparin® kit with procedure adapted for measurement in microplate reader (Dynatech MR 5000). A calibration curve with pentasaccharide is performed, allowing the expression of the results in nmol/ml (or in mg/L) of plasma.
In mouse, an overdose of fondaparinux is observed at 300 nmol/kg (or 0.52 mg/kg) but maximal concentration in plasma is observed less than 15 min after sub-cutaneous injection.

[2] = patients, curative pentasaccharide treatment; cited from earlier work
[3] = rats, cited from earlier work
[4] = Heparin affinity column elution with NaCl gradient; type: binding
Experimental: Conditioned media are thawed, pooled, salt concentration adjusted to 0.4 M NaCl and then applied on an heparin immobilized column (Hitrap Heparin 5 ml or Heparin-sepharose CL6B 50 ml, GE Biological) equilibrated with 10 mM Tris, or with 20 mM phosphate buffer, 0.4 M NaCl and 0.1 mM EDTA, pH 7.4. The bound proteins are eluted in the same buffer with a gradient from 0.4 M to 2 M NaCl. The fractions eluted from 0.8 M NaCl and more contained only wild type antithrombin or mutated antithrombins with high heparin affinity. […] The collected fractions are pooled and the salt concentration is decreased either by over night dialysis against 10 mM Tris, or 20 mM phosphate, and 0.1 M NaCl, pH 7.4 at 4° C. or applied on an HiPrep 26/10 desalting column equilibrated with 10 mM Tris, or 20 mM phosphate, and 0.1 M NaCl, pH 7.4. The antithrombin is then concentrated by ion exchange chromatography using a “Resource Q” 1 ml column (GE, Biological) equilibrated with 10 mM Tris, or 20 mM phosphate, and 0.1 M NaCl, pH 7.4 and eluted in the same buffer with a NaCl gradient from […] to 0.5 M or 20 mM to 0.5 M. The antithrombin concentration in each elution fraction is estimated by absorbance at 280 nm with an absorption coefficient ε=0.65 g^−1·l·cm^−1 and the integrity of purified wild type antithrombin or mutated antithrombins is tested by western blotting using the same couple of antibodies as described before, and electrophoresis on 10% acrylamide/bisacrylamide gel in native and denaturing conditions followed by coomassie brilliant blue R-250 staining (FIG. 4). Then, the antithrombin preparation is aliquoted and stored at −80° C. before use for functional assay. The same procedure is used to purify plasma antithrombin (used as internal reference) from human plasma.

Row | Compound | dose at which an overdose is observed [1] [mg/kg] | minimal equilibrium concentration in plasma [2] [mg/L] | optimal equilibrium concentration in plasma [2] [mg/L] | Tmax ([3]; intra-venous injection of 100 nmol/kg (or 0.17 mg/kg)) [min] | Tmax ([3]; subcutaneous injection of 100 nmol/kg (or 0.17 mg/kg)) [min] | elution from heparin affinity column compared with wild type antithrombin [4]
1 | CO[C@H]1O[C@H](COS(=O)(=O)O)[C@@H](O[C@@H]2O[C@@H](C(=O)O)[C@@H](O[C@H]3O[C@H](COS(=O)(=O)O)[C@@H](O[C@@H]4O[C@H](C(=O)O)[C@@H](O[C@H]5O[C@H](COS(=O)(=O)O)[C@@H](O)[C@H](O)[C@H]5NS(=O)(=O)O)[C@H](O)[C@H]4O)[C@H](OS(=O)(=O)O)[C@H]3NS(=O)(=O)O)[C@H](O)[C@H]2OS(=O)(=O)O)[C@H](O)[C@H]1NS(=O)(=O)O [fondaparinux] | 0.52 | 0.46 to 0.62 | 1.20 to 1.26 | 5 | 30 | –
2 | AT-N135Q: human antithrombin with substitution of the amino acid at position 135 by Glutamine | – | – | – | – | – | higher ionic strength than wild type antithrombin
